PubChem BioAssay AID1645848
Values after ≈ are worked out from the molar mass of the structure shown.

details: buffer; pH 7.4; 6.0 h; 150.0 µM

Structure (SMILES)	solubility kinetic [µg/mL]
COc1cccc(CNc2ccc(S(=O)(=O)Nc3nc(C)c(C)s3)cc2)c1O	1.83 (≈ 4.35 µM)
O=C(Nc1cc(C(F)(F)F)ccc1N1CCOCC1)c1n[nH]c(=O)c2ccccc12	< 1
Cc1cc(C)nc(NC(=S)N2CCN(c3ccncc3)CC2)c1	> 48
CNC(=O)c1cc(Oc2ccc(NC(=O)Nc3cc(C(C)(C)C)nn3-c3ccc4ncccc4c3)c(F)c2)ccn1	3.5 (≈ 6.32 µM)
CCOP(=O)(Cc1ccc(C(=O)Nc2ccc(Br)cc2C#N)cc1)OCC	14.9 (≈ 33.1 µM)
Clc1ccccc1CSc1nc2ncc(Br)cc2[nH]1	< 1
Cc1ccc(S(=O)(=O)Nc2ccccc2C(=O)Nc2ncc(-c3ccccc3)s2)cc1	< 1
c1ccc(Nc2cc3c(cn2)CN(Cc2ccsc2)CCN3)cc1	> 75
CC(C)(C)c1cc(NC(=O)Nc2ccc(-c3cn4c(n3)sc3cc(OCCN5CCOCC5)ccc34)cc2)no1	< 1
O=C(Nc1ncc(Cc2ccc(C(F)(F)F)cc2)s1)c1ccc(-c2ccccc2[N+](=O)[O-])o1	< 1
Cc1ccc(S(=O)(=O)Nc2cnccc2C(=O)Nc2nc(-c3ccco3)cs2)cc1	> 65
O=S(=O)(c1ccc(Cl)cc1)c1ccccn1	31.8 (≈ 125 µM)
Cc1cc(N[S+](=O)([O-])c2ccc(NC(=O)Cc3ccc(F)c(F)c3)cc2)no1	> 60
O=[N+]([O-])c1ccc(-c2nc(Nc3ccc(F)c(F)c3)c3ccccc3n2)cc1	< 1
CC(C)Oc1cccc(-c2csc(N3CCC(C(N)=O)CC3)n2)c1	41.7 (≈ 121 µM)
CO[C@@H]1/C=C\O[C@@]2(C)Oc3c(C)c(O)c4c(c3C2=O)C(=N[C@H]2CC[C@H](O)O[C@@H]2C)C=C(NC(=O)/C(C)=C\C(=O)[C@@H]2C[C@@H]2[C@@H](O)[C@H](C)[C@@H](O)[C@H](C)[C@H](OC(C)=O)[C@@H]1C)C4=O	32.3 (≈ 39.3 µM)
COc1ccc2c(c1)CN(C(=O)CCN1CCC(Cc3ccccc3)CC1)CCS2	> 63
CC[C@H](C)[C@@H]([C@@H](CC(=O)N1CCC[C@H]1[C@H](OC)[C@@H](C)C(=O)N[C@@H](Cc1ccccc1)c1nccs1)OC)N(C)C(=O)[C@@H](NC(=O)[C@H](C(C)C)N(C)C)C(C)C	65.7 (≈ 83.7 µM)
CCCCN1CCC[C@H]1CNC(=O)c1cc(C#N)c2ccccc2c1OC	22.2 (≈ 60.6 µM)
O=[S+]([O-])(Nc1ccc(C2CCNCC2)cc1)c1ccc(NCc2ccc(Cl)cc2O)cc1	23.9 (≈ 50.6 µM)
CC(C)(C)c1ccc(-c2ccc(=O)n(CC(=O)NCCc3ccccc3)n2)cc1	< 1
CNC(=O)c1ccc(-c2cnc3cnc(C(=O)N(C)c4ccc(Cl)cc4)cn23)cc1	> 62
O=C(Nc1ccc(N2CCN(c3ncccc3C(F)(F)F)CC2)nc1)c1cccs1	< 1
Cc1nc2ccc(Nc3nc(-c4ccncc4)nc4ccccc34)cc2s1	< 1
Cc1ccc(S(=O)(=O)Nc2ccc(C(=O)Nc3ncc(-c4ccccc4)s3)cc2)cc1	< 1

Structure (SMILES)	solubility kinetic [µg/mL]
CC(C)Oc1ccc(CNC(=O)C2CCN(C(=O)N3CCOc4ccc(Cl)cc43)CC2)cc1	9.14 (≈ 19.4 µM)
COc1ccc(-c2noc([C@@H]3Cc4nc[nH]c4CN3C(=O)NC3CCCCC3)n2)cc1	30.5 (≈ 72.1 µM)
COc1cccc(CNc2ccc(S(=O)(=O)Nc3nc4ccccc4s3)cc2)c1O	2.08 (≈ 4.72 µM)
COc1cccc(Cn2c(=O)n(-c3cccc(Cl)c3C)c(=O)c3c4c(sc32)CN(C(C)=O)CC4)c1	< 1
O=C(NCCc1ccc(OCC(F)(F)F)c(OCC(F)(F)F)c1)c1cc2sccc2n1Cc1ccccc1	< 1
Cc1cccc(CNc2ccc(S(=O)(=O)Nc3nccs3)cc2)c1O	> 55
Fc1cnc(-c2ccccc2C(F)F)nc1NCc1ccc(-n2ccnn2)cc1	< 1
Nc1c(-c2ccccc2)cnc2c(-c3ccccc3)cnn12	< 1
O=C(c1ccc2c(c1)ncn2-c1cccc(C(F)(F)F)c1)N1CCCCC1	> 55
CCOc1ccccc1C(=O)Nc1ncccc1C(=O)Nc1cccc(S(=O)(=O)C(F)(F)F)c1	< 1
CC(=O)Nc1nc(C)c(-c2ccc(Cl)c(S(=O)(=O)NCCO)c2)s1	> 57
Cc1ccc(O)c(-c2cc(-c3ccccc3C)[nH]n2)c1	< 1
COc1ccccc1-c1csc(N2CCC(C(N)=O)CC2)n1	3.08 (≈ 9.7 µM)
O=C1Nc2ccccc2/C1=C/c1ccc[nH]1	1.91 (≈ 9.09 µM)
Cc1ccccc1C(=O)N1CCc2cc(-c3csc(NC(=O)Cc4ccc5c(c4)OCO5)n3)ccc21	< 1
c1cc(OCCN2CCCCC2)cc(-c2n[nH]c3ccc(-c4ncn[nH]4)cc23)c1	> 38
C1CCc2nc3c(nc2C1)CCCC3	> 28
Cc1nsc(N)c1C(=O)N(C)CCOc1ccccc1Cl	> 48
O=C1Nc2ccccc2C1Cc1cc(Cl)c(O)c(Cl)c1 (configuration not stated)	> 45
CC(C)c1ccc2oc3nc(N)c(C(=O)O)cc3c(=O)c2c1	> 44
CCOc1ccc(NC(=O)c2ccc(F)c(S(=O)(=O)N(CC)Cc3ccccc3)c2)cc1	< 1
COc1cccc(OC)c1C(=O)Nc1ccccc1C(=O)Nc1cccc(C(F)(F)F)c1	< 1
O=C(Nc1nc(-c2ccccc2)cs1)c1ccncc1NS(=O)(=O)c1ccc(Cl)cc1	< 1
NC(=O)C1CCN(c2nc(-c3cccc(F)c3)cs2)CC1	> 45
CNc1oc(-c2cccc(Cl)c2Cl)nc1C#N	< 1

Structure (SMILES)	solubility kinetic [µg/mL]
O=C1Nc2ccccc2/C1=C\c1ccc(C(=O)O)cc1	> 39
CC[C@@H](CO)NC(=O)[C@@H]1C=C2c3cccc4c3c(cn4C)C[C@H]2N(C)C1	> 52
CC(O)(C#Cc1ccc2c(c1)N(c1nc(N)ncc1Cl)CC2)c1nccs1 (configuration not stated)	11.9 (≈ 29.9 µM)
COc1ccc(/C=C2/C(=O)Nc3ccccc32)cc1O	29.2 (≈ 109 µM)
COCCNC(=O)c1ccc(Cn2c(=S)[nH]c3cc4c(cc3c2=O)OCO4)cc1	6.98 (≈ 16.9 µM)
Cc1cc(-c2nnc3n2CCCCC3)c(C)n1-c1ccncc1	36 (≈ 117 µM)
[2H]C([2H])(Nc1nc(-c2ccccc2C([2H])(C([2H])([2H])[2H])C([2H])([2H])[2H])ncc1C)c1ccc(-n2ccnn2)cc1	13.5 (≈ 34.3 µM)
Cc1cccc(N2CCN(c3nc4ccccc4c4nnc(C)n34)CC2)c1C	< 1
NC(=O)C1CCN(c2nc(-c3ccc4ccccc4c3)cs2)CC1	3.67 (≈ 10.9 µM)
COc1ncc(-c2n[nH]c3c2CC(=O)N(c2ccccc2)C3)cn1	5.46 (≈ 17 µM)
CC(=O)N[C@H]1CN(C2CCN(c3ccc(F)cc3C)CC2)C[C@@H]1C1CC1	20.3 (≈ 56.4 µM)
CCOc1ccc(-c2nc(SCC(=O)Nc3ccc(C)c(C)c3)n3[nH]c(=O)cc3n2)cc1	< 1
Cc1cc(C)nc(NC(=S)N2CCN(c3cccc(C(F)(F)F)n3)CC2)c1	20.6 (≈ 52 µM)
COc1cccc(C(=O)Nc2nnc(S(=O)(=O)N3CCOCC3)s2)c1	> 57
CCCCOc1ccc(CNC(=O)c2cc3n(n2)CCCN(Cc2ccc(C)cc2)C3=O)cc1	< 1
CCN1CCN(C(=O)c2cc(-c3ccc(F)cc3)c3nncn3n2)CC1	> 52
Cc1ccc(S(=O)(=O)Nc2cccc(C(=O)Nc3nc(-c4ccc(Cl)cc4)cs3)c2)cc1	< 1
COc1ccc(S(=O)(=O)N2CCOCC2)cc1NC(=O)c1cccc(-n2cccc2)c1	6.13 (≈ 13.9 µM)
O=C(O)c1cccc(-c2noc(-c3ccccc3F)n2)c1	7.02 (≈ 24.7 µM)
COc1cccc(N2CCN(c3ncc4c(n3)CCN(Cc3ccc(Br)cc3)C4)CC2)c1	< 1
O=C(c1ccccc1)N1CCC(C(=O)N2CCC(N3Cc4ccccc4C3=O)CC2)CC1	> 43
CCc1ccc(NC(=O)c2[nH]c(C)c(C(C)=O)c2C)cc1S(=O)(=O)Nc1ccc(C#N)cc1	2.19 (≈ 4.72 µM)
COc1cc(-c2nc(Nc3ccc(F)c(F)c3)c3ccccc3n2)cc(OC)n1	< 1
Cc1cc2ccccc2n1CC(=O)NC1CCCCC1	3.41 (≈ 12.6 µM)
CCc1ccc(C2C(C(=O)Nc3ccccc3OC)=C(C)Nc3c(C(=O)Nc4ccc(C)cc4)cnn32)cc1 (configuration not stated)	5.74 (≈ 11 µM)

Structure (SMILES)	solubility kinetic [µg/mL]
O=S(=O)(Nc1nccs1)c1ccc(NCc2cc(Cl)ccc2O)cc1	37.2 (≈ 94 µM)
Nc1c(S(=O)(=O)c2cccs2)c2nc3ccccc3nc2n1Cc1ccccc1	< 1
CC(C)(C)c1ccc(-c2nc(SCCCOc3ccccc3)n3[nH]c(=O)cc3n2)cc1	< 1
CCOc1ccc(CCNC(=O)c2cc3ccccc3n2C)cc1OCC	1.63 (≈ 4.44 µM)
NC(=O)C1CCN(c2nc(-c3cccc(C(F)(F)F)c3)cs2)CC1	2.41 (≈ 6.78 µM)
COc1ccc(CCNC(=O)c2cc3c(=O)n4ccccc4nc3n(CCCN3CCOCC3)c2=N)cc1	> 76
COc1cc(OC)c2c(=O)[nH]c(-c3cc(C)c(OCCO)c(C)c3)nc2c1	> 55
Cc1ccccc1C(=O)N1CCc2cc(-c3cccc(NC(=O)Cc4ccc5c(c4)OCO5)c3)ccc21	< 1
Cc1cc(C)nc(NC(=S)N2CCN(Cc3cccc(C(F)(F)F)c3)CC2)c1	35.9 (≈ 87.8 µM)
Cn1c(=O)cc(C(=O)NC2CCCc3c2[nH]c2c(Cl)cccc32)c2ccccc21 (configuration not stated)	< 1
Nc1cc(CN2C(=O)c3ccccc3C2=O)cc(Cl)c1O	20.8 (≈ 68.8 µM)
CCCCn1cc2c(c1-c1ccc(Br)cc1)c(=O)n(C)c(=O)n2C	< 1
FC(F)(F)c1ccccc1-c1nc(NCc2ccc(-c3cccnc3)cc2)c2ccccc2n1	< 1
Cc1onc(-c2ccc(F)cc2)c1COc1ccc(C(=O)N2CCS(=O)(=O)CC2)cn1	> 66
NC(=O)C1CCN(c2nccc(-c3ccc4c(c3)OCCCO4)n2)CC1	44.2 (≈ 125 µM)
Cc1cccc2nc(-c3cccnc3)c(Nc3ccc(C(C)C)cc3)n12	< 1
O=C(Nc1nc(-c2ccccc2)cs1)c1ccncc1NS(=O)(=O)c1cccc(Cl)c1	< 1
Cn1c(=O)c2[nH]c(=O)[nH]c2n(C)c1=O	> 29
C=CCc1cccc(CNc2ccc(S(=O)(=O)Nc3nccs3)cc2)c1O	23.1 (≈ 57.5 µM)
CCCc1c(CC)c(=N)c2ccccc2n1C.I	> 34
CC1Oc2cc3c(-c4c(O)cc(O)c5c(O)c6c(cc45)OC(C)C(C)C6=O)c(O)cc(O)c3c(O)c2C(=O)C1C (configuration not stated)	53.5 (≈ 97.8 µM)
CCOC(=O)[C@H]1O[C@@H]1C(=O)N[C@@H](CC(C)C)C(=O)NCCC(C)C	24 (≈ 70.1 µM)
